Experimental findings from ChEMBL document CHEMBL4251711, “Bioactive Indolocarbazoles from the Marine-Derived Streptomyces sp. DT-A61” (J Nat Prod, 2018) are described below.

Test [1] deals with T1, Mitogen-activated protein kinase kinase kinase 5 (Homo sapiens, UniProt Q99683).
T1 sequence (Q99683 whole entry): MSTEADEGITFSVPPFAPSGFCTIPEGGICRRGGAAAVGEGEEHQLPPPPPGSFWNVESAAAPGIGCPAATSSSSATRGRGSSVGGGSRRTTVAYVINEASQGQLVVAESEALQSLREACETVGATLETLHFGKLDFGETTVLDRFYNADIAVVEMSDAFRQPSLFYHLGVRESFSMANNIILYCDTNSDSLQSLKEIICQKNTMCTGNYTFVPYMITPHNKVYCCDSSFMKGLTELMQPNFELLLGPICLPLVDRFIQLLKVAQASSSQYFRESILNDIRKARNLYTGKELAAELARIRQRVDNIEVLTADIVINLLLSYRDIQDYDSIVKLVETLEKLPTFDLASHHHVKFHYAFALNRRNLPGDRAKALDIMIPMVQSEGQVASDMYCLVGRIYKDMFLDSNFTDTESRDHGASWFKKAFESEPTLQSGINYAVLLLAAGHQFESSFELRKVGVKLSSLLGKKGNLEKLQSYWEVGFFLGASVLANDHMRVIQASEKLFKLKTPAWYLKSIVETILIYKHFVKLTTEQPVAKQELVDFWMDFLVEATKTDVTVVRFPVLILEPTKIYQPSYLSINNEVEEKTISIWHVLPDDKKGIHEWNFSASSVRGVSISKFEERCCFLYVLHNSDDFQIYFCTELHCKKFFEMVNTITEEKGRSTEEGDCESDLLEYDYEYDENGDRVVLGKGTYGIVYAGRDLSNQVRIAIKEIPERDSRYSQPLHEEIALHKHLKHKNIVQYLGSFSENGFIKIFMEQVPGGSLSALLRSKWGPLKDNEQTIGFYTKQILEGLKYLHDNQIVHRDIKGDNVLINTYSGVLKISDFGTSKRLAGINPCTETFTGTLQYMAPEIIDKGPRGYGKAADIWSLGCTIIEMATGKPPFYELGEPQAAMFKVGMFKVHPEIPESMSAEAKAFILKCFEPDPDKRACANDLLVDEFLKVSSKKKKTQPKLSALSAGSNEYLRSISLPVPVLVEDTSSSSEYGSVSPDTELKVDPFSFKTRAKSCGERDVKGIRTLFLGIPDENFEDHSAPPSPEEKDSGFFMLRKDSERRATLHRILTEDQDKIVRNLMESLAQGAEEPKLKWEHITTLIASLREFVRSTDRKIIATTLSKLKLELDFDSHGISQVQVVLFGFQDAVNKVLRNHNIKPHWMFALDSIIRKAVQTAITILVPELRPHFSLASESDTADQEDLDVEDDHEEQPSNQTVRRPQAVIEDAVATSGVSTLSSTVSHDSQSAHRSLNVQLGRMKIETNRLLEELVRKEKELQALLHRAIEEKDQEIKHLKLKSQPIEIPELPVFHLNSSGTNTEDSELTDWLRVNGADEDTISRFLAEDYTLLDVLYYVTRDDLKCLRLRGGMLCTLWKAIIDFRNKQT
Kind of test: Inhibition of ASK1 (unknown origin) by HTRF assay.

In test [2] the target is Rho-associated protein kinase 2 (Homo sapiens, UniProt O75116). Kind of test: Inhibition of ROCK2 (unknown origin) by HTRF assay.
In test [3] the target is Protein kinase C alpha type (Homo sapiens, UniProt P17252). The test can be described thus: Inhibition of PKCalpha (unknown origin) by HTRF assay.
A further test concerns PC-3. The test can be described thus: Cytotoxicity against human PC3 cells after 72 hrs by SRB assay. Particulars: PC-3, 72 h. Format: functional, cell-based.

Chain of Rho-associated protein kinase 2 (O75116 whole entry): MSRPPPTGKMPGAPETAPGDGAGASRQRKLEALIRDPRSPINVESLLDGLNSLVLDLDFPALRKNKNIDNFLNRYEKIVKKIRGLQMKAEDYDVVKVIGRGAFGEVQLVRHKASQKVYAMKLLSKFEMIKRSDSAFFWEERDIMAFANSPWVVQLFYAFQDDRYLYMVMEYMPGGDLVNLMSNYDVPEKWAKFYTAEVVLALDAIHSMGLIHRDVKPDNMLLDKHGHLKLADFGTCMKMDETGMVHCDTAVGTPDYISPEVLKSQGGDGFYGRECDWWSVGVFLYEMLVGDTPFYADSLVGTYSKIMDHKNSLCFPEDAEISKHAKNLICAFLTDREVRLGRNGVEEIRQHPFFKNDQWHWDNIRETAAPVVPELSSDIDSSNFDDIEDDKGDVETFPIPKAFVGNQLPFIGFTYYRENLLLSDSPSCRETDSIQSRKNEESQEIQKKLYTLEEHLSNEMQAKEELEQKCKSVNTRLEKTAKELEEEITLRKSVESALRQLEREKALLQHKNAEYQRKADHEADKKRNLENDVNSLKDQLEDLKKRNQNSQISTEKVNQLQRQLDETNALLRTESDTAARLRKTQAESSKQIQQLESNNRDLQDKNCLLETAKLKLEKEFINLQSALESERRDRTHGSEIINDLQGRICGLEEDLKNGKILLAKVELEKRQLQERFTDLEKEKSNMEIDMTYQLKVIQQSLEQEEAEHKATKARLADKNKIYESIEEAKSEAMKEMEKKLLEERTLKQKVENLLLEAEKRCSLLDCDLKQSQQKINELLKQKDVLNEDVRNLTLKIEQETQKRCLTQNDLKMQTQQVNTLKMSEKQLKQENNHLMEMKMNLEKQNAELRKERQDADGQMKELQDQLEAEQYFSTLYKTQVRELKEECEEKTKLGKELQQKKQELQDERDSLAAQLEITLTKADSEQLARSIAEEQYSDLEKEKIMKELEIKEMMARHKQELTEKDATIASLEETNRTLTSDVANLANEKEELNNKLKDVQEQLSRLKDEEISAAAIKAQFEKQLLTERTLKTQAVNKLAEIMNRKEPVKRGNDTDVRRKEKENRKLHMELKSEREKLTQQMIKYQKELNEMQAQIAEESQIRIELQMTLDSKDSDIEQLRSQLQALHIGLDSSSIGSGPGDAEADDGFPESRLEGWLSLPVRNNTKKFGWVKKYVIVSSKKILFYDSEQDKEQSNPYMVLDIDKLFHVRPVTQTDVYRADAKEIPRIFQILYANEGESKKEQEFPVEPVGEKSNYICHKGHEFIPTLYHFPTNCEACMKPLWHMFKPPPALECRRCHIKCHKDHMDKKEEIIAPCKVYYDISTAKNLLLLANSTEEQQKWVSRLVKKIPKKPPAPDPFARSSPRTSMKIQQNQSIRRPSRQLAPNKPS

With `CC(=O)N[C@@H]1C[C@H](n2c3ccc(O)cc3c3c4c(c5c6ccccc6[nH]c5c32)CNC4=O)O[C@@H](C)[C@@H]1O`, the IC50 in test [1] was 6400 nM; in test [2], 40 nM; in test [3], 460 nM; in the test with PC-3 it was 3600 nM.

In the case of `C[C@@H]1O[C@@H]2C[C@](O)([C@H]1O)n1c3ccccc3c3c4c(c5c6cc(O)ccc6n2c5c31)C(=O)NC4`, the IC50 in test [1] turned out to be 4100 nM; in test [2] it was 970 nM; in test [3] it was 2100 nM; with PC-3, 39000 nM.

Take `COC1NC(=O)c2c1c1c3ccccc3[nH]c1c1[nH]c3ccc(O)cc3c21` (stereo not given): the IC50 was over 50000 nM in test [1], 910 nM in test [2], 1400 nM in test [3] and 18000 nM in the test with PC-3.

In the case of `C[C@@H]1O[C@@H](n2c3ccc(O)cc3c3c4c(c5c6ccccc6[nH]c5c32)CNC4=O)C[C@@H](N)[C@H]1O`, the IC50 was determined as 1100 nM in test [1], 150 nM in test [2], 79 nM in test [3] and 3100 nM in the test on PC-3.

Consider `C[C@H]1O[C@@H]2C[C@](O)([C@H]1O)n1c3ccccc3c3c4c(c5c6cc(O)ccc6n2c5c31)C(=O)NC4`, for which the half-inhibitory concentration (IC50) in test [1] is over 50000 nM; in test [2], 340 nM; in test [3] it was 1400 nM; in the test with PC-3, 5600 nM.

In the case of `O=C1NCc2c1c1c3ccccc3[nH]c1c1[nH]c3ccc(O)cc3c21`, the IC50 in test [1] was 740 nM; in test [2], 340 nM; in test [3] it was 980 nM; in the test with PC-3, 8000 nM.

`CC(=O)N[C@H]1C[C@H]2O[C@@](C)([C@@H]1O)n1c3ccccc3c3c4c(c5c6ccccc6n2c5c31)C(=O)NC4`: the IC50 in test [1] was found to be 770 nM; in test [2] it was 260 nM; in test [3], 92 nM; in the test with PC-3, 160 nM.

Consider `O=C1NCc2c1c1c3cc(O)ccc3[nH]c1c1[nH]c3ccccc3c21`, for which the concentration for half-maximal inhibition (IC50) was determined as 3000 nM in test [1], 5.7 nM in test [2], 3200 nM in test [3] and 21000 nM with PC-3.

As to `CC(=O)N[C@@H]1C[C@H](n2c3ccccc3c3c4c(c5c6cc(O)ccc6[nH]c5c32)CNC4=O)O[C@@H](C)[C@@H]1O`, the IC50 in test [1] was over 50000 nM; in test [2], 1400 nM; in test [3], 97 nM.
